Data published in PubChem BioAssay AID328 (DTP/NCI, 2004).
Several values for one entry are separate records, joined by “and”; a condition that tells them apart may be missing. Equal entries are not always repeated. Inconclusive results and toxic doses are left out. How the source made its calls: active means survival T/C of 150% or more; inactive means T/C below 125% in these data.

System: BDF1 mice, P388 leukemia ip, median survival T/C
Assay: NCI In Vivo Anticancer Drug Screen. Data for tumor model P388 Leukemia (intraperitoneal) in B6D2F1 (BDF1) mice
Details: endpoint: median survival time, higher = longer survival
Summary of the method: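 Survival ratio, drug arm over vehicle arm, in mice with a transplanted tumour.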

[1] = dose: 50.0 mg/kg/injection, schedule: Q01DX009 (ip), vehicle: saline with Tween-80
[2] = dose: 100.0 mg/kg/injection, schedule: Q01DX009 (ip), vehicle: saline with Tween-80
[3] = dose: 200.0 mg/kg/injection, schedule: Q01DX009 (ip), vehicle: saline with Tween-80
[4] = dose: 400.0 mg/kg/injection, schedule: Q01DX009 (ip), vehicle: saline with Tween-80
[5] = dose: 100.0 mg/kg/injection, schedule: Q01DX001 (ip), vehicle: Klucel (hydroxypropylcellulose) (HPC)
[6] = dose: 100.0 mg/kg/injection, schedule: Q04DX003 (ip), vehicle: saline with Tween-80
[7] = dose: 50.0 mg/kg/injection, schedule: Q04DX003 (ip), vehicle: saline
[8] = dose: 200.0 mg/kg/injection, schedule: Q04DX003 (ip), vehicle: saline with Tween-80
[9] = dose: 400.0 mg/kg/injection, schedule: Q04DX003 (ip), vehicle: saline with Tween-80

Measured: T/C

O=C(O)CCCOc1cc(Cl)c(Cl)cc1Cl
inactive: dose: 50.0 mg/kg/injection, schedule: Q01DX009 (ip), vehicle: gum acacia 107 % of control | dose: 50.0 mg/kg/injection, schedule: Q04DX003 (ip), vehicle: gum acacia 100 % of control | dose: 100.0 mg/kg/injection, schedule: Q01DX009 (ip), vehicle: gum acacia 107 % of control | dose: 100.0 mg/kg/injection, schedule: Q04DX003 (ip), vehicle: gum acacia 104 % of control | dose: 200.0 mg/kg/injection, schedule: Q01DX009 (ip), vehicle: gum acacia 107 % of control | dose: 200.0 mg/kg/injection, schedule: Q04DX003 (ip), vehicle: gum acacia 122 % of control

CCCCN(CCCC)CCC(O)c1cc2ccc(C(F)(F)F)cc2c2cc(C(F)(F)F)ccc12 (stereo unspecified)
inactive: [1] 94 % of control | [2] 90 % of control | [3] 110 % of control

N#Cc1c2c(c(O)[nH]c1=O)CCCC2
inactive: [2] 120 % of control | [3] 105 % of control | [4] 120 % of control

COc1ccc(OC)c(C(=O)CCCC(=O)O)c1
inactive: [5] 100 % of control | dose: 100.0 mg/kg/injection, schedule: Q01DX009 (ip), vehicle: Klucel (hydroxypropylcellulose) (HPC) 90 % of control | dose: 100.0 mg/kg/injection, schedule: Q04DX003 (ip), vehicle: Klucel (hydroxypropylcellulose) (HPC) 100 % of control | dose: 200.0 mg/kg/injection, schedule: Q01DX001 (ip), vehicle: Klucel (hydroxypropylcellulose) (HPC) 104 % of control | dose: 200.0 mg/kg/injection, schedule: Q01DX009 (ip), vehicle: Klucel (hydroxypropylcellulose) (HPC) 90 % of control | dose: 200.0 mg/kg/injection, schedule: Q04DX003 (ip), vehicle: Klucel (hydroxypropylcellulose) (HPC) 91 % of control | dose: 400.0 mg/kg/injection, schedule: Q01DX001 (ip), vehicle: Klucel (hydroxypropylcellulose) (HPC) 95 % of control | dose: 400.0 mg/kg/injection, schedule: Q01DX009 (ip), vehicle: Klucel (hydroxypropylcellulose) (HPC) 95 % of control | dose: 400.0 mg/kg/injection, schedule: Q04DX003 (ip), vehicle: Klucel (hydroxypropylcellulose) (HPC) 87 % of control

CCC(C#N)C1=CCCCCC1 (stereo unspecified)
inactive: dose: 25.0 mg/kg/injection, schedule: Q04DX003 (ip), vehicle: saline with Tween-80 109 % of control | dose: 50.0 mg/kg/injection, schedule: Q04DX003 (ip), vehicle: saline with Tween-80 121 % of control | [6] 118 % of control

O=C(NO)c1ccc([N+](=O)[O-])cc1
inactive: dose: 240.0 mg/kg/injection, schedule: Q01DX010 (ip), vehicle: water 92 % of control | dose: 270.0 mg/kg/injection, schedule: Q01DX010 (ip), vehicle: water 90 % of control and 113 % of control | dose: 360.0 mg/kg/injection, schedule: Q01DX010 (ip), vehicle: water 123 % of control

C[N+]1(C)CCCCC1
inactive: dose: 12.5 mg/kg/injection, schedule: Q01DX009 (ip), vehicle: saline 95 % of control and 100 % of control | dose: 12.5 mg/kg/injection, schedule: Q04DX003 (ip), vehicle: saline with Tween-80 101 % of control | dose: 25.0 mg/kg/injection, schedule: Q01DX009 (ip), vehicle: saline 98 % of control and 100 % of control | [7] 100 % of control

CCOC(=O)C(C1=NC(C)(C)CC(C)O1)C(C[N+](=O)[O-])c1ccccc1 (stereo unspecified)
inactive: dose: 50.0 mg/kg/injection, schedule: Q01DX001 (ip), vehicle: saline sonified 100 % of control | dose: 100.0 mg/kg/injection, schedule: Q01DX001 (ip), vehicle: saline sonified 100 % of control | dose: 200.0 mg/kg/injection, schedule: Q01DX001 (ip), vehicle: saline sonified 100 % of control

NOCc1ccc(CON)cc1
inactive: [7] 87 % of control | dose: 100.0 mg/kg/injection, schedule: Q04DX003 (ip), vehicle: saline 91 % of control | dose: 200.0 mg/kg/injection, schedule: Q04DX003 (ip), vehicle: saline 95 % of control

Nc1nc(=O)c2ccccc2s1
inactive: [6] 105 % of control | [8] 111 % of control | [9] 100 % of control

COc1ccc(Cc2cc3cc(OC)c(OC)cc3cn2)cc1OC
inactive: [6] 110 % of control | [3] 103 % of control | [8] 112 % of control | dose: 300.0 mg/kg/injection, schedule: Q01DX009 (ip), vehicle: saline with Tween-80 114 % of control | [4] 103 % of control | [9] 116 % of control | dose: 500.0 mg/kg/injection, schedule: Q01DX009 (ip), vehicle: saline with Tween-80 103 % of control

O=C(NC(C(=O)O)C(O)c1cn(C(=O)OCc2ccccc2)cn1)OCc1ccccc1 (stereo unspecified)
inactive: [1] 113 % of control | [2] 110 % of control | [3] 98 % of control

CNC(=S)NC1C2CC3CC(C2)CC1C3 (stereo unspecified)
inactive: [1] 94 % of control | [2] 94 % of control | [3] 94 % of control

CC(Br)C1(c2cccc([N+](=O)[O-])c2)OCCO1 (stereo unspecified)
inactive: dose: 25.0 mg/kg/injection, schedule: Q01DX001 (ip), vehicle: Klucel (hydroxypropylcellulose) (HPC) 100 % of control | dose: 50.0 mg/kg/injection, schedule: Q01DX001 (ip), vehicle: Klucel (hydroxypropylcellulose) (HPC) 104 % of control | [5] 90 % of control and 100 % of control

Cc1ccc(NC(=O)c2ccc(C)c([N+](=O)[O-])c2)c(C)c1
inactive: dose: 100.0 mg/kg/injection, schedule: Q01DX008 (sc), vehicle: olive oil, sesame oil, peanut oil 87 % of control | dose: 100.0 mg/kg/injection, schedule: Q04DX003 (sc), vehicle: olive oil, sesame oil, peanut oil 88 % of control | dose: 200.0 mg/kg/injection, schedule: Q01DX008 (sc), vehicle: olive oil, sesame oil, peanut oil 100 % of control | dose: 200.0 mg/kg/injection, schedule: Q04DX003 (sc), vehicle: olive oil, sesame oil, peanut oil 88 % of control | dose: 400.0 mg/kg/injection, schedule: Q01DX008 (sc), vehicle: olive oil, sesame oil, peanut oil 87 % of control | dose: 400.0 mg/kg/injection, schedule: Q04DX003 (sc), vehicle: olive oil, sesame oil, peanut oil 92 % of control

N=C1C=C[C@]2(O)C[C@H](Cl)CN12
inactive: dose: 0.38 mg/kg/injection, schedule: Q01DX009 (ip), vehicle: saline 104 % of control | dose: 0.75 mg/kg/injection, schedule: Q01DX009 (ip), vehicle: saline 104 % of control | dose: 1.5 mg/kg/injection, schedule: Q01DX009 (ip), vehicle: saline 114 % of control | dose: 3.0 mg/kg/injection, schedule: Q01DX009 (ip), vehicle: saline 98 % of control | dose: 6.0 mg/kg/injection, schedule: Q01DX009 (ip), vehicle: saline 117 % of control

O=S(=O)(Nc1ccc(-c2ccccc2)cc1)c1ccccc1
inactive: [1] 108 % of control | [2] 101 % of control | [3] 101 % of control | [4] 106 % of control
